Reference: patent publication US10780074B2, “Compounds and uses thereof” (Sunovion Pharmaceuticals Inc., priority 2017, dated 2020)
Counter-ions that a name gives are not always drawn. Like-named read-outs stand apart in the source and are kept apart here.

System: behaviors of compound-treated mice
Experiment: Neuropharmacological Assay (SmartCube)
Assay type: in vivo
Settings: for minimal effective dose: Mus musculus, ip, 0.25 h, dose having 50% or more total activity in SmartCube, read-out: MED (minimal effective dose)
Procedure, shortened: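 Behavioral signatures were captured automatically by video, and each drug class received a probability for the best of three i.p. doses given 15 min pre-test (vehicle: Pharmasolve/PEG/propylene glycol). Potency is given as MED, the lowest mpk dose (typically 0.3–30) reaching 50% or more total activity.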

[1] = SmartCube, i.p. 15 min before test, most efficacious dose(s)
[2] = i.p. 15 min before behavioral test, most efficacious dose(s) of 3 doses

| SMILES | minimal effective dose | AD: ADHD (probability that activity matches class) [1] | AG: analgesic (probability that activity matches class) [1] | AX: anxiolytic (probability that activity matches class) [1] | CE: cognitive enhancer (probability that activity matches class) [1] | DP: anti-depressant (probability that activity matches class) [1] | MS: mood stabilizer (probability that activity matches class) [1] | PS: anti-psychotic (probability that activity matches class) [1] | SD: sedative hypnotic (probability that activity matches class) [1] | UN: uncharacterized CNS activity (probability that activity matches class) [1] | minimal effective dose (i.p.) | AD: ADHD (probability that activity matches class) [2] | AG: analgesic (probability that activity matches class) [2] | AX: anxiolytic (probability that activity matches class) [2] | CE: cognitive enhancer (probability that activity matches class) [2] | DP: anti-depressant (probability that activity matches class) [2] | MS: mood stabilizer (probability that activity matches class) [2] | PS: anti-psychotic (probability that activity matches class) [2] | SD: sedative hypnotic (probability that activity matches class) [2] | UN: uncharacterized CNS activity (probability that activity matches class) [2] |
| --- | --- | --- | --- | --- | --- | --- | --- | --- | --- | --- | --- | --- | --- | --- | --- | --- | --- | --- | --- | --- |
| NC[C@@H]1OCCc2c1cccc2-n1cccn1 [Compound 188, (R)-(5-(1H-pyrazol-1-yl)isochroman-1-yl)methanamine hydrochloride salt] | 10 to 30 mg/kg | ++ (5% ≤ ++ <25%) | + (LOQ ≤ + <5%) | ++ (5% ≤ ++ <25%) | + (LOQ ≤ + <5%) | + (LOQ ≤ + <5%) | + (LOQ ≤ + <5%) | + (LOQ ≤ + <5%) | + (LOQ ≤ + <5%) | ++++ (50% ≤ ++++) | – | – | – | – | – | – | – | – | – | – |
| CNC[C@H]1OCc2c(-c3cccnc3)cccc21 [Compound 34, (S)—N-Methyl-1-(4-(pyridin-3-yl)-1,3-dihydroisobenzofuran-1-yl)methanamine hydrochloride salt] | – | – | – | – | – | – | – | – | – | – | ≤ 3 mg/kg | + (LOQ ≤ + <5%) | + (LOQ ≤ + <5%) | ++ (5% ≤ ++ <25%) | + (LOQ ≤ + <5%) | ++++ (50% ≤ ++++) | ++ (5% ≤ ++ <25%) | + (LOQ ≤ + <5%) | + (LOQ ≤ + <5%) | + (LOQ ≤ + <5%) |
| CNC[C@@H]1OCCCc2c(-c3ccncn3)cccc21 (single isomer, unassigned) [Compound 164, hydrochloride salt] | – | – | – | – | – | – | – | – | – | – | 10 to 30 mg/kg | + (LOQ ≤ + <5%) | + (LOQ ≤ + <5%) | + (LOQ ≤ + <5%) | + (LOQ ≤ + <5%) | + (LOQ ≤ + <5%) | + (LOQ ≤ + <5%) | + (LOQ ≤ + <5%) | + (LOQ ≤ + <5%) | + (LOQ ≤ + <5%) |
| Cl.NC[C@@H]1OCCc2c(-c3ncco3)cccc21 [Compound 106, (R)-(5-(Oxazol-2-yl)isochroman-1-yl)methanamine hydrochloride salt] | – | – | – | – | – | – | – | – | – | – | 10 to 30 mg/kg | + (LOQ ≤ + <5%) | + (LOQ ≤ + <5%) | +++ (25% ≤ +++ <50%) | ++ (5% ≤ ++ <25%) | ++ (5% ≤ ++ <25%) | + (LOQ ≤ + <5%) | + (LOQ ≤ + <5%) | + (LOQ ≤ + <5%) | + (LOQ ≤ + <5%) |
| NC[C@@H]1OCc2c(-c3ccccn3)cccc21 (single isomer, unassigned) [Compound 41] | – | – | – | – | – | – | – | – | – | – | 10 to 30 mg/kg | + (LOQ ≤ + <5%) | + (LOQ ≤ + <5%) | ++ (5% ≤ ++ <25%) | ++ (5% ≤ ++ <25%) | ++ (5% ≤ ++ <25%) | + (LOQ ≤ + <5%) | + (LOQ ≤ + <5%) | ++ (5% ≤ ++ <25%) | ++++ (50% ≤ ++++) |
